From patent US20140057915A1, “KINASE INHIBITORS” (TOPIVERT PHARMA LIMITED, priority 2012, published 2014)
Like-named read-outs stand apart in the source and are kept apart here.

Columns and labels:
[1] = test system: IL-8 release, PBMCs; experiment: LPS-induced IL-8 release in PBMC cells; assay type: cell-based; conditions: Homo sapiens, LPS stimulated, read-out: IC50 Values for Inhibition of Cytokine Release, PBMCs, IL-8
Procedure, shortened: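 PBMCs from healthy donors pretreated with compound for 2 h, then stimulated with 1 ng/ml LPS (E. coli 0111:B4) for 24 h at 37 °C, 5% CO2. Supernatant IL-8 and TNFα measured by sandwich ELISA with fluorescence read-out.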

[2] = molecular target: cSrc (Homo sapiens, UniProt P12931); experiment: c-Src enzyme inhibition (FRET); assay type: biochemical
Procedure, shortened: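 Enzyme was preincubated with test compound (added as 4, 0.4, 0.04 or 0.004 μg/mL solutions) for 2 hr at RT. FRET peptide (8 μM solution) and ATP solution (800 μM for c-Src, 60 μM for Syk) were then added for 1 hr, followed by 1 hr protease development.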

[3] = molecular target: GSK3α (Homo sapiens, UniProt P49840); experiment: GSK 3α enzyme inhibition (FRET), Method 2; assay type: biochemical; conditions: Table 4a2, different laboratory
[4] = test system: d-U937 cells; experiment: Cell viability: MTT assay; assay type: cell-based, human; conditions: 1 μg/mL
Procedure, shortened: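 MTT reduction (1 h, DMSO solubilisation, A550) measured after compound treatment at 1 or 10 μg/mL of differentiated U937 cells for 4 h (5% FCS RPMI1640) or 24 h (10% FCS). Percentage viability loss computed relative to 0.5% DMSO vehicle, with increases tabulated as negative values.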

[5] = test system: IL-8 release, d-U937 cells; experiment: LPS-induced IL-8 release in d-U937 cells; assay type: cell-based; conditions: Homo sapiens, dU937
Procedure, shortened: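 IL-8 release after a 4 hr challenge with LPS (0.1 μg/mL, E. coli 0111:B4) following a 2 hr compound pretreatment. Cells were human U937 monocytes differentiated to macrophage-type with PMA 100 ng/mL for 48–72 hr. Relative 50% effective concentration derived from concentration–response data.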

[6] = test system: TNFα release, d-U937 cells; experiment: LPS-induced TNFα release in d-U937 cells; assay type: cell-based; conditions: Homo sapiens, dU937; for EC50: relative to 10 μg/mL BIRB796, Table 4c1, read-out: LPS Induced Release of Cytokine in d-U937 Cells, TNFα REC50; for IC50: Table 4c2, different laboratory, read-out: IC50 Values for Inhibition of Cytokine Release, dU937 cells, TNFα
Procedure, shortened: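 Sandwich ELISA quantifies cytokine in supernatants after 4 hr LPS challenge (0.1 μg/mL) of PMA-differentiated (100 ng/mL, 48–72 hr) U937 macrophages given compound 2 hr beforehand. REC50 derived from concentration-response curve, inhibition calculated relative to vehicle.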

[7] = test system: IL-2 release, PBMCs; experiment: IL-2 release in CD3/CD28 stimulated PBMC cells; assay type: cell-based; conditions: Homo sapiens, read-out: IC50 Values for Inhibition of Cytokine Release, PBMCs, IL-2
[8] = test system: PBMC cells; experiment: Cell mitosis assay; assay type: cell-based; conditions: Homo sapiens, read-out: % Inhibition of mitosis in PBMC cells at 5 μg/mL
Procedure, shortened: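 Healthy-donor PBMCs (3 million cells per sample) stimulated with 2% PHA for 48 hr, then exposed 20 hr to varying compound concentrations. Demecolcine (0.1 μg/mL) added 2 hr before collection to arrest cells in metaphase; read by flow cytometry gated on lymphocytes.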

[9] = Table 4c1, read-out: LPS Induced Release of Cytokine in d-U937 Cells, IL-8 IC50
[10] = Table 4a2, different laboratory
[11] = Table 4c2, different laboratory, read-out: IC50 Values for Inhibition of Cytokine Release, dU937 cells, IL-8

Sequence of cSrc (P12931 whole entry): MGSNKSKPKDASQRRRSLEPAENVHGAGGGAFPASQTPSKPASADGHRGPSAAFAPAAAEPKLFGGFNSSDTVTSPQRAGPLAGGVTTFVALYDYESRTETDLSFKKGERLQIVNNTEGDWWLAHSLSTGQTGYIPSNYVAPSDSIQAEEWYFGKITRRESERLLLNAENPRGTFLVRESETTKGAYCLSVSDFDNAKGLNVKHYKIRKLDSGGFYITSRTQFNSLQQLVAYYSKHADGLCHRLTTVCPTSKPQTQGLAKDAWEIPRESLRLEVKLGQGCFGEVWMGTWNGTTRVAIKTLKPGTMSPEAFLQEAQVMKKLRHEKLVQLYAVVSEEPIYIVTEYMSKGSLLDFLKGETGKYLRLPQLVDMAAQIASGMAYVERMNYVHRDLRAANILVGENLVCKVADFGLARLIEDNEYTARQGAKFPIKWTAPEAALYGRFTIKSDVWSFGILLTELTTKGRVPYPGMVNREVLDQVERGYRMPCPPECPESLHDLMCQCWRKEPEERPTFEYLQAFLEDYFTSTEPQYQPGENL
Sequence of GSK3α (P49840 whole entry): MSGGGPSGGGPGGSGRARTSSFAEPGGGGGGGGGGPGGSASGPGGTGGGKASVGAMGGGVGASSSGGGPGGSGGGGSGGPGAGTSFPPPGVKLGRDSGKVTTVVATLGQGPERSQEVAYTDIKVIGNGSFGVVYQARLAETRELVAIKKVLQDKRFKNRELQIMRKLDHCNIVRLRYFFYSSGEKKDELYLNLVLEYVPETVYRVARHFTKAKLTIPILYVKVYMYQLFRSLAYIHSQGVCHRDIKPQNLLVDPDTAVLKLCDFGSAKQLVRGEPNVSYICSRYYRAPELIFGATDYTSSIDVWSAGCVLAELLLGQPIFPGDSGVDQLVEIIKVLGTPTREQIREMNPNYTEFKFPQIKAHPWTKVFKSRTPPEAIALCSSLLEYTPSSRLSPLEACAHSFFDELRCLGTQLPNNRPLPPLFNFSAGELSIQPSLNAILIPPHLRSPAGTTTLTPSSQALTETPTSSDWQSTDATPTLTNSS

| SMILES | IC50 ([2]; Table 4a1) | IC50 [3] | IC50 [5, 9] | EC50 [6] | IC50 [2, 10] | IC50 [6] | IC50 [1] | Cell viability at time point in d-U937 cells, 4 h [4] | Cell viability at time point in d-U937 cells, 24 h [4] | IC50 [7] | inhibition at 5 µg/mL [8] | IC50 [5, 11] |
| --- | --- | --- | --- | --- | --- | --- | --- | --- | --- | --- | --- | --- |
| COCCNC(=O)c1cc(Nc2nccc(Oc3ccc(NC(=O)Nc4cc(C(C)C)nn4-c4ccc(OC)cc4)c4ccccc34)n2)cc(OC)c1 [Example 11, 3-((4-((4-(3-(3-Isopropyl-1-(4-methoxyphenyl)-1H-pyrazol-5-yl)ureido)naphthalen-1-yl)oxy)pyrimidin-2-yl)amino)-5-methoxy-N-(2-methoxyethyl)benzamide] | 8 nM | 9.95 µM | 1.3 nM | 0.2 nM | 15 nM | 0.3 nM | 3 nM | −ve (−ve and +ve indicate that the value is below and above respectively, the no significant effect threshold, defined as 30% inhibition at 1 μg/mL at the time point indicated) | −ve (−ve and +ve indicate that the value is below and above respectively, the no significant effect threshold, defined as 30% inhibition at 1 μg/mL at the time point indicated) | 27.5 nM | 50.7% | – |
| C#Cc1cc(Nc2nccc(Oc3ccc(NC(=O)Nc4cc(C(C)(C)C)nn4-c4ccc(OC)cc4)c4ccccc34)n2)cc(C(=O)NCCN2CCOCC2)c1 [Example 77, 3-((4-((4-(3-(3-(tert-Butyl)-1-(4-methoxyphenyl)-1H-pyrazol-5-yl)ureido)-naphthalen-1-yl)oxy)pyrimidin-2-yl)amino)-5-ethynyl-N-(2-morpholinoethyl)benzamide] | – | 5.95 µM | – | – | 12 nM | 0.4 nM | 1.1 nM | – | – | 42.8 nM | -0.3% | 0.9 nM |
| COc1ccc(-n2nc(C3(C)COC3)cc2NC(=O)Nc2ccc(Oc3ccnc(Nc4cccc(C(=O)NCCN5CCOCC5)c4)n3)c3ccccc23)cc1 [Example 23, 3-((4-((4-(3-(1-(4-methoxyphenyl)-3-(3-methyloxetan-3-yl)-1H-pyrazol-5-yl)ureido)naphthalen-1-yl)oxy)pyrimidin-2-yl)amino)-N-(2-morpholinoethyl)benzamide] | < 1 nM | – | 2.3 nM | 5.2 nM | – | – | – | −ve (−ve and +ve indicate that the value is below and above respectively, the no significant effect threshold, defined as 30% inhibition at 1 μg/mL at the time point indicated) | −ve (−ve and +ve indicate that the value is below and above respectively, the no significant effect threshold, defined as 30% inhibition at 1 μg/mL at the time point indicated) | – | 35.6% | – |
| COc1ccc(-n2nc(C(C)(C)C)cc2NC(=O)Nc2ccc(Oc3ccnc(Nc4cc(Br)cc(C(N)=O)c4)n3)c3ccccc23)cc1 [Example 42, 3-bromo-5-((4-((4-(3-(3-(tert-butyl)-1-(4-methoxyphenyl)-1H-pyrazol-5-yl)ureido)naphthalen-1-yl)oxy)pyrimidin-2-yl)amino)benzamide] | 20 nM | – | 2 nM | 1.5 nM | – | – | – | −ve (−ve and +ve indicate that the value is below and above respectively, the no significant effect threshold, defined as 30% inhibition at 1 μg/mL at the time point indicated) | −ve (−ve and +ve indicate that the value is below and above respectively, the no significant effect threshold, defined as 30% inhibition at 1 μg/mL at the time point indicated) | – | 12.9% | – |

Now from value to compound, other results behind:

| IC50 ([2]; Table 4a1) | IC50 [3] | IC50 [5, 9] | EC50 [6] | IC50 [2, 10] | IC50 [6] | SMILES | IC50 [1] | Cell viability at time point in d-U937 cells, 4 h [4] | Cell viability at time point in d-U937 cells, 24 h [4] | IC50 [7] | inhibition at 5 µg/mL [8] | IC50 [5, 11] |
| --- | --- | --- | --- | --- | --- | --- | --- | --- | --- | --- | --- | --- |
| < 1 nM | ≥ 13.3 µM | 8 nM | 5.2 nM | – | – | COc1cc(Nc2nccc(Oc3ccc(NC(=O)Nc4cc(C5CC5)nn4-c4ccc(C)cc4)c4ccccc34)n2)cc(C(=O)NCCN2CCOCC2)c1 [Example 50, 3-((4-((4-(3-(3-cyclopropyl-1-(p-tolyl)-1H-pyrazol-5-yl)ureido)naphthalen-1-yl)oxy)pyrimidin-2-yl)amino)-5-methoxy-N-(2-morpholinoethyl)benzamide] | 7.3 nM | −ve (−ve and +ve indicate that the value is below and above respectively, the no significant effect threshold, defined as 30% inhibition at 1 μg/mL at the time point indicated) | −ve (−ve and +ve indicate that the value is below and above respectively, the no significant effect threshold, defined as 30% inhibition at 1 μg/mL at the time point indicated) | – | – | – |
| 13 nM | 12.1 µM | 1.5 nM | 0.2 nM | 27 nM | 2.7 nM | Cc1ccc(-n2nc(C(C)C)cc2NC(=O)Nc2ccc(Oc3ccnc(Nc4cc(C(=O)NCCN5CCOCC5)cc(C(F)(F)F)c4)n3)c3ccccc23)cc1 [Example 7, 3-((4-((4-(3-(3-isopropyl-1-(p-tolyl)-1H-pyrazol-5-yl)ureido)naphthalen-1-yl)oxy)pyrimidin-2-yl)amino)-N-(2-morpholinoethyl)-5-(trifluoromethyl)benzamide] | 2.4 nM | −ve (−ve and +ve indicate that the value is below and above respectively, the no significant effect threshold, defined as 30% inhibition at 1 μg/mL at the time point indicated) | −ve (−ve and +ve indicate that the value is below and above respectively, the no significant effect threshold, defined as 30% inhibition at 1 μg/mL at the time point indicated) | 260 nM | 20.6% | – |
| < 1 nM | 7.26 µM | 1.1 nM | 0.3 nM | 8 nM | 0.7 nM | COc1ccc(-n2nc(C(C)C)cc2NC(=O)Nc2ccc(Oc3ccnc(Nc4cc(OC)cc(C(=O)NCCN5CCOCC5)c4)n3)c3ccccc23)cc1 [Example 53, 3-((4-((4-(3-(3-isopropyl-1-(4-methoxyphenyl)-1H-pyrazol-5-yl)ureido)naphthalen-1-yl)oxy)pyrimidin-2-yl)amino)-5-methoxy-N-(2-morpholinoethyl)benzamide] | 3.1 nM | −ve (−ve and +ve indicate that the value is below and above respectively, the no significant effect threshold, defined as 30% inhibition at 1 μg/mL at the time point indicated) | −ve (−ve and +ve indicate that the value is below and above respectively, the no significant effect threshold, defined as 30% inhibition at 1 μg/mL at the time point indicated) | 44.1 nM | 39.4% | – |
| – | ≥ 12.6 µM | – | – | 19 nM | 0.3 nM | C#Cc1cc(Nc2nccc(Oc3ccc(NC(=O)Nc4cc(C(C)(C)C)nn4-c4ccc(N(C)C)cc4)c4ccccc34)n2)cc(C(=O)NCCN2CCOCC2)c1 [Example 80, 3-((4-((4-(3-(3-(tert-Butyl)-1-(4-(dimethylamino)phenyl)-1H-pyrazol-5-yl)ureido)naphthalen-1-yl)oxy)pyrimidin-2-yl)amino)-5-ethynyl-N-(2-morpholinoethyl)-benzamide] | 1.5 nM | – | – | 2.3 nM | 10.4% | 0.5 nM |
| < 1 nM | – | 0.6 nM | 1 nM | – | – | COc1cc(Nc2nccc(Oc3ccc(NC(=O)Nc4cc(C5(C)CC5)nn4-c4ccc(C)cc4)c4ccccc34)n2)cc(C(=O)NCCN2CCOCC2)c1 [Example 51, 3-methoxy-5-((4-((4-(3-(3-(1-methylcyclopropyl)-1-(p-tolyl)-1H-pyrazol-5-yl)ureido)naphthalen-1-yl)oxy)pyrimidin-2-yl)amino)-N-(2-morpholinoethyl)benzamide] | – | −ve (−ve and +ve indicate that the value is below and above respectively, the no significant effect threshold, defined as 30% inhibition at 1 μg/mL at the time point indicated) | −ve (−ve and +ve indicate that the value is below and above respectively, the no significant effect threshold, defined as 30% inhibition at 1 μg/mL at the time point indicated) | – | 20% | – |
